Consider eleven molecules from ChEMBL document CHEMBL4339204, “Synthesis of α-methylstilbenes using an aqueous Wittig methodology and application toward the development of potent human aromatase inhibitors” (Bioorg Med Chem Lett, 2019).

Broadly, the Ki is a dissociation constant, usually derived from enzyme kinetics or from competition with a known ligand. A high value points to a looser hold on the target.

In this test the target is T1, Aromatase (Homo sapiens, UniProt P11511).
T1 sequence (P11511 whole entry): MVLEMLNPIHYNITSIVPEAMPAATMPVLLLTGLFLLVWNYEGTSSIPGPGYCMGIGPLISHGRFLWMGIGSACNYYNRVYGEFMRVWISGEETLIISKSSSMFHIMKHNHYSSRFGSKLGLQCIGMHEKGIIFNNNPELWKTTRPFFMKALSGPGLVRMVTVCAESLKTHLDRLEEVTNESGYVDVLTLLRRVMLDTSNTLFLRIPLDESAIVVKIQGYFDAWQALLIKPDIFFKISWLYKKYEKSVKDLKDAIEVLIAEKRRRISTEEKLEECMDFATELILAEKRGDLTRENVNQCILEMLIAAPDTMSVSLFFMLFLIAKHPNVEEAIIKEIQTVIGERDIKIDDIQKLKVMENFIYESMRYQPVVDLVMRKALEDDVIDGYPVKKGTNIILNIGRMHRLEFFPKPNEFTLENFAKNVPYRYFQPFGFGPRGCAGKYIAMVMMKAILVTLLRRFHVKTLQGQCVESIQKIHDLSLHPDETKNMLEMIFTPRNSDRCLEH
Description: Inhibition of recombinant human CYP19A1 using DBF as substrate measured after 1 hr by fluorescence assay
The molecule `Clc1ccc(/C(=C/c2ccccc2)Cn2ccnn2)cc1` displayed a Ki of 57 nM.
Then `Brc1ccc(/C(=C\c2ccccc2)Cn2ccnn2)cc1`, with 125 nM; and `c1ccc(CC(Cn2ccnn2)c2ccccc2)cc1` (stereo unspecified), with 290 nM.
Then `C(=C(\Cn1cncn1)c1ccccc1)/c1ccccc1`, with 79 nM; and `Clc1ccc(/C(=C\c2ccccc2)Cn2ccnn2)cc1`, with 81 nM; and `Brc1ccc(/C=C(\Cn2ccnn2)c2ccc(Br)cc2)cc1`, with 24 nM.
As to `Clc1ccc(/C=C(/Cn2ccnn2)c2ccc(Cl)cc2)cc1`, the Ki was 97 nM.
Then `Clc1ccc(/C=C(\Cn2ccnn2)c2ccc(Cl)cc2)cc1`, with 8 nM; and `C(=C(/Cn1cncn1)c1ccccc1)/c1ccccc1`, with 32 nM; and `Brc1ccc(/C(=C/c2ccccc2)Cn2ccnn2)cc1`, with 74 nM.
As for `Brc1ccc(/C=C(/Cn2ccnn2)c2ccc(Br)cc2)cc1`, the affinity corresponds to a Ki of 450 nM.
